In patent publication US20120115845A1, “THERAPEUTIC AGENTS” (priority 2007, published 2012) one finds IC50, Emax and EC50 data, which are given here for eleven compounds.

Test [1] addresses T1, human GHS receptor (Homo sapiens, UniProt Q92847). The test can be described thus: h bind IC50 (binding assay, Table 1). As to conditions: human receptor; Table 1.
For test [2], the target named is T1, human GHS receptor. Nature of the test: Ghrelin IP1 agonist assay (IP1 HTRF). The class given is cell-based. Details: expressed in transfected cells; host or cells: HEK293s. The note with it: for Emax: 2 h, agonist effect as % maximal effect of GHRP-6 (5 μM), read-out: h IP1 ag %; for pEC50: HEK293s cells stably expressing human GHS receptor, 2 hours at 37° C., read-out: h IP1 ag EC50. In short, it runs like this:
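Cells: HEK293s stably expressing human GHS receptor, in stimulation buffer containing 0.02% fatty acid free BSA.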
For orientation: Time-resolved FRET reads energy transfer from a long-lived donor to a nearby acceptor.

pEC50, pIC50: −log10 of the molar value.

For orientation: pIC50 means the negative decadic logarithm of the IC50, by convention in mol/L. The low end stands for a large IC50, the high end for a small IC50. As usually defined, the pEC50 is −log10 of the EC50, conventionally taken in molar units.

T1 sequence (Q92847 whole entry): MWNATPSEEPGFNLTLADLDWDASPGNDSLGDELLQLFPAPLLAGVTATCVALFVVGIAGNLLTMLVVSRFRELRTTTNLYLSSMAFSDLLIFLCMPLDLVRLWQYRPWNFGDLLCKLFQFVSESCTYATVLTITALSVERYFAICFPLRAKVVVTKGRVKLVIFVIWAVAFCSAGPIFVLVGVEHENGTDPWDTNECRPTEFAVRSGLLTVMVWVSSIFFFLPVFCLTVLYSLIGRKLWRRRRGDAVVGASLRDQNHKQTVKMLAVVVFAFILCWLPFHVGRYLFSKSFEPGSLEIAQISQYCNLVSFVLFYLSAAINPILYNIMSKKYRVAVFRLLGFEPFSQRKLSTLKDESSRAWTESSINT

In turn, `O=C(NC(=O)c1ccccc1Cl)Nc1nc2ccc(S(=O)(=O)Cc3ccccn3)cc2s1` [Example 178, 2-Chloro-N-[[6-(pyridin-2-ylmethylsulfonyl)benzothiazol-2-yl]carbamoyl]benzamide] had a pIC50 in test [1] of 6.97. For the same compound, in test [2], the Emax was 18.7% and the pEC50 was 7.11.

In turn, `CS(=O)(=O)c1ccc2nc(NC(=O)NC(=O)c3cc(N4CCCC4)ccc3Cl)sc2c1` [Example 48, 2-Chloro-5-(1-pyrrolidinyl)-N-(6-(methylsulfonyl)benzothiazol-2-ylcarbamoyl)benzamide] gave a negative-log IC50 (pIC50) in test [1] of 8.89. In test [2], the Emax came out at 0.32% and the pEC50 is at most 4.60.

Take `CC(C)NCCS(=O)(=O)c1ccc2nc(NC(=O)NC(=O)c3ccccc3Cl)sc2c1` [Example 10, 2-Chloro-N-[[6-[2-(propan-2-ylamino)ethylsulfonyl]benzothiazol-2-yl]carbamoyl]benzamide]: the pIC50 in test [1] is 7.56. In test [2], the Emax stood at 44.1% and the negative logarithm of the EC50 (pEC50) was 7.72.

`Cc1ccnn1-c1ccc(Cl)c(C(=O)NC(=O)Nc2nc3ccc(S(C)(=O)=O)cc3s2)c1` [Example 55, 2-Chloro-5-(5-methyl-1H-pyrazol-1-yl)-N-(6-(methylsulfonyl)benzothiazol-2-ylcarbamoyl)benzamide]: the pIC50 in test [1] was 7.64. Moreover, in test [2], the Emax was 48.9% and the pEC50 was 8.24.

In the case of `O=C(NC(=O)c1ccccc1Cl)Nc1nc2ccc(S(=O)(=O)CC3CCNCC3)cc2s1` [Example 219, 2-Chloro-N-[[6-(4-piperidylmethylsulfonyl)benzothiazol-2-yl]carbamoyl]benzamide], in test [1], the negative logarithm of the IC50 (pIC50) was 7.75. In test [2], the Emax came to 64.5% and the pEC50 is 7.53.

As to `O=C(NC(=O)c1ccccc1Cl)Nc1nc2ccc(S(=O)(=O)C3CN(CC4CC4)C3)cc2s1` [Example 175, 2-Chloro-N-[[6-[1-(cyclopropylmethyl)azetidin-3-yl]sulfonylbenzothiazol-2-yl]carbamoyl]benzamide], the negative logarithm of the IC50 (pIC50) in test [1] was 7.19. Besides, in test [2], the Emax came to 30.1% and the negative logarithm of the EC50 (pEC50) was 7.65.

On to `CC(C)(C)OC(=O)N1CCC(CS(=O)(=O)c2ccc3nc(NC(=O)NC(=O)c4ccccc4Cl)sc3c2)CC1` [Example 217, tert-Butyl 4-[[2-[(2-chlorobenzoyl)carbamoylamino]benzothiazol-6-yl]sulfonylmethyl]piperidine-1-carboxylate], for which the pIC50 in test [1] is 7.15. For the same compound, in test [2], the Emax was 36.9% and the negative logarithm of the EC50 (pEC50) was 6.93.

Consider `CN1CCN(CCCS(=O)(=O)c2ccc3nc(NC(=O)NC(=O)c4cc(-n5cncn5)ccc4Cl)sc3c2)CC1` [Example 95, 2-Chloro-N-(6-(3-(4-methylpiperazin-1-yl)propylsulfonyl)benzothiazol-2-ylcarbamoyl)-5-(1H-1,2,4-triazol-1-yl)benzamide], for which, in test [1], the pIC50 is 7.97. Further, in test [2], the Emax was determined as 9.48% and the pEC50 is 5.94.

Regarding `CSc1ccccc1C(=O)NC(=O)Nc1nc2ccc(S(C)(=O)=O)cc2s1` [Example 132, 2-Methylsulfanyl-N-[(6-methylsulfonylbenzothiazol-2-yl)carbamoyl]benzamide], the negative logarithm of the IC50 (pIC50) in test [1] is 6.18. Further, in test [2], the Emax came to 15.5% and the pEC50 was 5.43.

With `COc1ccc(C(=O)NC(=O)Nc2nc3ccc(S(C)(=O)=O)cc3s2)c(-c2ccc(F)cc2)c1` [Example 123, 2-(4-Fluorophenyl)-4-methoxy-N-[(6-methylsulfonylbenzothiazol-2-yl)carbamoyl]benzamide], in test [1], the negative logarithm of the IC50 (pIC50) is 6.92. In addition, in test [2], the Emax stood at 31.2% and the pEC50 is 7.26.

Compound `CS(=O)(=O)c1ccc2nc(NC(=O)NC(=O)c3ccccc3Sc3ccccc3)sc2c1` [Example 133, N-[(6-Methylsulfonylbenzothiazol-2-yl)carbamoyl]-2-phenylsulfanyl-benzamide] showed a pIC50 in test [1] of 7.67. Besides, in test [2], the Emax turned out to be 41.7% and the negative-log EC50 (pEC50) was 4.96.
